Measurements taken from patent US11306066B2, “4H-pyran compounds as insulin-regulated aminopeptidase (IRAP) inhibitors” (Monash University, priority 2015, dated 2022).

Test system: primary cultures of rat hippocampal neurons
Experiment: In vitro hippocampal spine density
Type: cell-based
Conditions: chronic treatment (3 doses of 10^−5M), days 14, 17 and 20; FIG. 1
Source text: In Vitro Hippocampal Spine Density
Dendritic spines are a complex, distinct cellular compartment that protrude from neuronal processes, and act as a source of synaptic contact vital for plasticity, signalling and neuronal integration. Hippocampal spine density increases in the rat brain after learning of an associative task, thereby acting as a substrate for the new memories. Drugs that enhance actin reorganisation in dendritic spines, a requirement for stabilisation of memory, have been proposed for the treatment of memory disorders.
Hippocampi from E18 rat pups were dissected into cold Hank's Basic Salt Solution, rinsed three times and incubated in 5 ml of 0.12% w/v trypsin and 40 μg/ml DNAse (Sigma-Aldrich, St. Louis, USA) for 20 minutes at 37° C. Clumped cells were triturated for one minute with a sterile 1 ml pipette. […] Cell density in a 1/10 dilution was measured using a haemocytometer. […]
For immunohistochemical staining of spines, coverslips were removed from plates and washed in PBS, then incubated in PBSX for 15 minutes to permeabilise membranes. […] Spines highlighted by drebrin immunostaining were counted in Image J. Single neurites were identified and all spines along a fifty micron segment were counted. […]

## CC(=O)C1=C(C)OC(N)=C(C#N)C1c1ccc(C(=O)O)cc1.N (stereo not shown) [Test Compound 1]
  dendritic spine densities: statistically significant increases
